Measured values published in patent US20230108934A1, “Stabilizing Camptothecin Pharmaceutical Compositions” (Ipsen Biopharm Ltd., priority 2015, published 2023).
Where two headings read alike, the source gives them in different places.

Tests used:
[1] = Solubility determination of irinotecan sucrosofate in water; assay type: physicochemical; details: deionized water, 4-6° C., 22 hours
Procedure: An amount of 1.64 g of irinotecan hydrochloride trihydrate was added to 160 mL of water acidified with 0.008 mL of 1 N HCl, and heated on a 65° C. water bath with stirring until the drug was dissolved. Five mL of 0.46 M (based on sulfate concentration) triethylammonium sucrosofate were added with intensive stirring, and stirred for five minutes more. […] The precipitate was separated by centrifugation, and the supernatant solution was discarded. The pellet was resuspended in five volumes of deionized water, and precipitated by centrifugation; this washing step was repeated two more times until the pH of the suspension was about 5.8. […] An aliquot of the product was solubilized in 1 N HCl and analyzed for irinotecan (by spectrophotometry at 365 nm in 70% aqueous isopropanol-0.1 N HCl) and for sulfate after hydrolysis in a diluted (1:4) perchloric acid using a barium sulfate turbidimetric assay. […] The samples were incubated with agitation at 4-6° C. for 22 hours, the solid material was removed by centrifugation for 10 min at 14000 g, and the supernatant fluid was analyzed for irinotecan by spectrophotometry.

[2] = cited from earlier work

Row | concentration of irinotecan in solution ([1]; final drug salt concentration 0.93 mg/mL) [micro-g/mL] | concentration of irinotecan in solution ([1]; final drug salt concentration 1.85 mg/mL) [micro-g/mL] | concentration of irinotecan in solution ([1]; final drug salt concentration 3.71 mg/mL) [micro-g/mL] | Compound | irinotecan in the more active lactone form ([2]; pH 6.0) | irinotecan in the more active lactone form ([2]; pH 6.5) | irinotecan in the more active lactone form ([2]; pH 7.5)
1 | 58.9±0.90 | 63.2±0.6 | 63.4±1.3 | CCc1c2c(nc3ccc(OC(=O)N4CCC(N5CCCCC5)CC4)cc13)-c1cc3c(c(=O)n1C2)COC(=O)[C@]3(O)CC [irinotecan sucrosofate] | – | – | –
2 | – | – | – | CCc1c2c(nc3ccc(OC(=O)N4CCC(N5CCCCC5)CC4)cc13)-c1cc3c(c(=O)n1C2)COC(=O)[C@]3(O)CC [irinotecan] | about 85% | about 65% | about 15%
